These results are taken from ChEMBL document CHEMBL3425452, “Farnesyl diphosphate synthase inhibitors with unique ligand-binding geometries” (ACS Med Chem Lett, 2015).

Assay [1] is described as follows: Inhibition of Trypanosoma brucei FPPS.
A short description of assay [2]: Inhibition of Leishmania donovani FPPS.
For assay [3], the system named is Trypanosoma brucei rhodesiense. Nature of the assay: Growth inhibition of Trypanosoma brucei rhodesiense.

Broadly, the IC50 is the concentration that inhibits the measured activity by half. Compound `Cc1cccnc1NC(P(=O)(O)O)P(=O)(O)O` came in with an IC50 in assay [1] of 0.23 µM. Compound `O=P(O)(O)C(O)(Cc1cccnc1)P(=O)(O)O` [RISEDRONIC ACID] registered an IC50 in assay [1] of 0.3 µM. One may read the EC50 as the concentration that produces a half-maximal response. Low values mean an effect from little substance, high ones a need for much substance. With `O=P(O)(O)C(O)(CCc1cccnc1)P(=O)(O)O`, the values for the IC50 in assay [1] and in assay [2] were 33 µM and 5.4 µM, respectively. The same compound gave an EC50 in assay [3] of 1.7 µM.
